From the supplement of paper PMC10307832

How the values were obtained:
Assay in all cases: relative viability (nuclei count vs DMSO), 5 days (fraction); higher = more cells survive
Selumetinib + Tozasertib = compound: Cn1cnc2c(F)c(Nc3ccc(Br)cc3Cl)c(C(=O)NOCCO)cc21 [Selumetinib] + Cc1cc(Nc2cc(N3CCN(C)CC3)nc(Sc3ccc(NC(=O)C4CC4)cc3)n2)n[nH]1 [Tozasertib] (partner 0.1 µM)
Procedure, shortened: (§1)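 The day after seeding in 1536-well plates, lung cancer cell lines were treated by pin tool with a single drug, or with a fixed anchor-drug dose together with five library-drug doses (not always all listed) in √10 steps. After 5 days, a combined fix-and-stain solution (final 0.05% Triton X-100, 1% formaldehyde, 1 ug/ml Hoechst) was added. Nuclei counted on 4× images gave relative viability as treated counts over vehicle counts, reported as the median of duplicate plates.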

Selumetinib + Alpelisib = compound: Cn1cnc2c(F)c(Nc3ccc(Br)cc3Cl)c(C(=O)NOCCO)cc21 [Selumetinib] + Cc1nc(NC(=O)N2CCC[C@H]2C(N)=O)sc1-c1ccnc(C(C)(C)C(F)(F)F)c1 [Alpelisib] (partner 2 µM)
Procedure, shortened: as §1

Selumetinib + Olaparib = compound: Cn1cnc2c(F)c(Nc3ccc(Br)cc3Cl)c(C(=O)NOCCO)cc21 [Selumetinib] + O=C(c1cc(Cc2n[nH]c(=O)c3ccccc23)ccc1F)N1CCN(C(=O)C2CC2)CC1 [Olaparib] (partner 8 µM)
Procedure, shortened: as §1

Venetoclax + Lapatinib = compound: CC1(C)CCC(CN2CCN(c3ccc(C(=O)NS(=O)(=O)c4ccc(NCC5CCOCC5)c([N+](=O)[O-])c4)c(Oc4cnc5[nH]ccc5c4)c3)CC2)=C(c2ccc(Cl)cc2)C1 [Venetoclax] + CS(=O)(=O)CCNCc1ccc(-c2ccc3ncnc(Nc4ccc(OCc5cccc(F)c5)c(Cl)c4)c3c2)o1 [Lapatinib] (partner 2 µM)
Procedure, shortened: as §1

Row | Cell Line | relative viability (Selumetinib + Tozasertib; first compound 0.02 µM) | relative viability (Selumetinib + Tozasertib; first compound 0.06325 µM) | relative viability (Selumetinib + Tozasertib; first compound 0.2 µM) | relative viability (Selumetinib + Tozasertib; first compound 0.6325 µM) | relative viability (Selumetinib + Alpelisib; first compound 0.02 µM) | relative viability (Selumetinib + Alpelisib; first compound 0.06325 µM) | relative viability (Selumetinib + Alpelisib; first compound 0.2 µM) | relative viability (Selumetinib + Alpelisib; first compound 0.6325 µM) | relative viability (Selumetinib + Olaparib; first compound 0.02 µM) | relative viability (Selumetinib + Olaparib; first compound 0.06325 µM) | relative viability (Selumetinib + Olaparib; first compound 0.2 µM) | relative viability (Selumetinib + Olaparib; first compound 0.6325 µM) | relative viability (Venetoclax + Lapatinib; first compound 0.01 µM) | relative viability (Venetoclax + Lapatinib; first compound 0.03162 µM) | relative viability (Venetoclax + Lapatinib; first compound 0.1 µM) | relative viability (Venetoclax + Lapatinib; first compound 0.3162 µM) | relative viability (Venetoclax + Lapatinib; first compound 1 µM)
1 | 201T | 0.908 | 0.928 | 0.88 | 0.874 | 0.95 | 0.954 | 0.906 | 0.824 | 0.781 | 0.791 | 0.79 | 0.79 | 1.07 | 0.943 | 0.959 | 1.02 | 1.08
2 | A549 | – | – | – | – | 0.675 | 0.438 | 0.311 | 0.296 | 0.284 | 0.295 | 0.325 | 0.265 | 1.05 | 0.988 | 1.04 | 0.998 | 0.898
3 | A-427 | 0.205 | 0.193 | 0.168 | 0.17 | 1.06 | 1.05 | 0.936 | 0.817 | 0.724 | 0.771 | 0.802 | 0.845 | 0.911 | 1.02 | 1.05 | 1.1 | 1.13
4 | ABC-1 | 0.161 | 0.157 | 0.139 | 0.135 | 0.826 | 0.743 | 0.852 | 0.643 | 0.885 | 0.726 | 0.737 | 0.768 | 1.24 | 1.17 | 1.1 | 1.14 | 1.13
5 | BEN | 0.545 | 0.442 | 0.489 | 0.564 | 1.02 | 0.932 | 0.861 | 0.886 | 1.13 | 1.08 | 1.14 | 0.988 | 0.745 | 0.781 | 0.735 | 0.626 | 0.613
6 | CAL-12T | 0.34 | 0.364 | 0.301 | 0.229 | 1.22 | 0.823 | 0.895 | 0.817 | 0.678 | 0.651 | 0.595 | 0.564 | 0.584 | 0.74 | 0.577 | 0.61 | 0.679
7 | COR-L23 | 0.211 | 0.187 | 0.171 | 0.163 | 0.91 | 0.825 | 0.793 | 0.654 | 0.404 | 0.385 | 0.414 | 0.446 | 0.921 | 0.957 | 0.983 | 0.922 | 0.938
8 | COR-L 105 | 0.364 | 0.316 | 0.309 | 0.322 | 1.29 | 0.746 | 0.767 | 0.6 | 0.73 | 0.727 | 0.687 | 0.582 | 0.418 | 0.384 | 0.326 | 0.355 | 0.367
9 | Calu-6 | – | – | – | – | 0.936 | 0.613 | 0.486 | 0.346 | 0.62 | 0.489 | 0.421 | 0.362 | 1.08 | 1.13 | 0.94 | 1 | 0.97
10 | ChaGo-K-1 | 0.212 | 0.237 | 0.222 | 0.204 | – | – | – | – | 0.43 | 0.414 | 0.398 | 0.39 | – | – | – | – | –
11 | EBC-1 | – | – | – | – | 0.779 | 0.591 | 0.556 | 0.361 | 0.717 | 0.66 | 0.599 | 0.443 | 0.213 | 0.187 | 0.234 | 0.206 | 0.224
12 | EKVX | 0.36 | 0.345 | 0.378 | 0.336 | 0.678 | 0.711 | 0.61 | 0.448 | 0.777 | 0.741 | 0.643 | 0.629 | 0.191 | 0.22 | 0.219 | 0.193 | 0.185
13 | EMC-BAC-2 | 0.383 | 0.361 | 0.349 | 0.387 | 0.678 | 0.694 | 0.645 | 0.712 | 0.636 | 0.657 | 0.674 | 0.717 | 0.88 | 0.878 | 0.731 | 0.847 | 0.827
14 | EPLC-272H | 0.185 | 0.181 | 0.34 | 0.283 | 0.749 | 0.656 | 0.58 | 0.66 | 0.531 | 0.512 | 0.519 | 0.575 | – | 0.87 | 0.89 | 1.08 | 0.921
15 | H3255 | 0.624 | 0.687 | 0.74 | 0.556 | 0.596 | 0.678 | 0.573 | 0.556 | 0.554 | 0.586 | 0.603 | 0.536 | 0.268 | 0.263 | 0.195 | 0.282 | 0.319
16 | HARA | 0.108 | 0.115 | 0.111 | 0.102 | 0.701 | 0.647 | 0.549 | 0.353 | 0.768 | 0.727 | 0.651 | 0.466 | 0.876 | 0.68 | 0.647 | 0.822 | 0.758
17 | HCC-15 | 0.372 | 0.209 | 0.268 | 0.158 | 0.683 | 0.405 | 0.347 | 0.19 | 0.694 | 0.622 | 0.575 | 0.368 | 0.887 | 0.855 | 0.774 | 0.796 | 0.774
18 | HCC-44 | 1.12 | 0.93 | 0.747 | 0.701 | 0.88 | 0.72 | 0.719 | 0.663 | 0.988 | 0.997 | 0.983 | 1.01 | 0.981 | 0.979 | 0.997 | 1.08 | 0.973
19 | HCC-78 | 0.703 | 0.44 | 0.436 | 0.408 | 0.286 | 0.321 | 0.219 | 0.298 | 0.904 | 0.738 | 0.723 | 0.789 | 0.859 | 0.736 | 0.604 | 0.935 | 0.662
